Test results from article PMC9144278, “Inclusion of a Phytomedicinal Flavonoid in Biocompatible Surface-Modified Chylomicron Mimic Nanovesicles with Improved Oral Bioavailability and Virucidal Activity: Molecular Modeling and Pharmacodynamic Studies” (Pharmaceutics, 2022).
In brackets after ≈: the same amount, converted by molar mass. Where two headings read alike, the source gives them in different places.

Legend:
[1] = Particle size, zeta potential and PDI by Zetasizer (dynamic laser scattering); assay type: physicochemical
Procedure: The MH-charged PCMs (0.10 mL) were admixed with distilled water (10.0 mL) in a glass culture tube and vortexed for 5 min. The particle sizes and their scattering surrounding the mean (including those of the pure-MH dispersion, shown in Supplementary Materials Figure S1) were determined at 25 °C using dynamic laser scattering with a 45 mm focus lens and a beam length of 2.4 mm. The same instrument was utilized for the ZP measurements of the electrophoretic mobility of the particles in the electric field.

[2] = Ex vivo drug gut-permeation study, noneverted gut sac technique; assay type: in vitro ADME, male Wistar rats; settings: rat intestine
Procedure: A comparative ex vivo intestinal transport study between the drug suspension and the optimized formula was conducted using the noneverted gut sac technique. […] The small intestine from each animal was then excised and sliced into sections 5 cm in length. The sections were then rinsed using normal saline. Krebs–Ringer solution (~2 mL) was utilized to irrigate the intestinal segments, followed by sac formation by closing the lower portion of the segments using a thread. Each sac was filled with a sample of the pure MH suspension (estimated to comprise 5.0 mg of MH) or with the optimized F9 formulation (estimated to comprise 5.0 mg of MH). Finally, each sac was allocated in an organ path packed with 50 mL of Krebs–Ringer solution after the lower portion of each sac was tightly sealed with a thread. […] CO2 mixture. […] To maintain a constant total volume, the organ path was compensated by the addition of equal volumes of fresh Krebs–Ringer solution after each sample for analysis had been withdrawn. The amounts of MH that had permeated through the intestinal segment were determined via HPLC using a Hitachi LaChrom Elite instrument equipped with a Model Series L-2000 organizer box, L-2300 column oven, L-2130 pump with built in degasser, Rheodyne 7725i injector with a […], and a L-2455 photodiode array detector (PAD). […]

Vero E6 cells = experiment: MTT cytotoxicity assay (TC50); assay type: cell-based, African green monkey; settings: 24 h
Procedure: Dulbecco’s Modified Eagle’s Medium (DMEM) was utilized for sample dilutions. The stock solutions of the investigated formulations were employed as solutions in 10% DMSO in double-distilled H2O. Cells were harvested in 96-well plates (100-µL/well at a density of 3 × 10^5 cells/mL) and were incubated for 24 h at 37 °C in 5% CO2. Afterwards, various amounts of the investigated compounds were added to the cells, and each experiment was performed in triplicate. After an extra 24 h, cell monolayers were dislodged from the supernatant and then rinsed 3 times with sterile phosphate buffer saline (PBS). MTT solution (20.0 µL of 5.00 mg/mL stock solution) was added into each well, and the cells were incubated for 4 h at 37 °C, followed by aspiration of the medium. […] The absorbances of the formazan solutions were assessed at λmax 540 vs. the 620 nm reference wavelength, using a multiwell plate reader. The cytotoxicity percentages related to the untreated cells were computed via GraphPad Prism software (version 7.01) using the following formula: %Cytotoxicity = (absorbance of cells without treatment − absorbance of cells with treatment) × 100 (absorbance of cells without treatment) […]

[3] = system: MERS-related coronavirus isolate NRCE-HKU270; experiment: microbe, parasite or virus in culture; assay type: cell-based, MERS-CoV
MERS-CoV = assay type: in vivo, C57BL/6 mice; settings: oral 10 mg/kg once daily
[4] = system: IFN-γ, TNF-α, IL-6, IL-4, SOD in BALF; design: species or system C57BL/6 mice; settings: mouse, in vivo, po, 10 mg/kg
lung tissue = system: lung tissue; design: species or system C57BL/6 mice; settings: mouse, in vivo
[5] = system: myeloperoxidase (MPO) and NF-κB; design: species or system C57BL/6 mice; settings: mouse, in vivo
[6] = Pharmacokinetic study after oral administration; settings: rat
[7] = cited from earlier work
[8] = male, Wistar albino, in vivo, po, 20 mg/kg

With `O=c1c(O)c(-c2ccc(O)cc2O)oc2cc(O)cc(O)c12` [MH, 2′,3,4′,5,7-pentahydroxyflavone] the “particle sizes of MH dispersion” value ([1]; MH dispersion in PBS used for oral dosing) was 672.3 ± 32.1, the PDI polydispersity index ([1]; mean ± SD (n = 3)) was 0.576 ± 0.1 and the Papp at 90 min ([2]; male, Wistar, read-out: apparent permeability coefficient (APC) (converted)) was 2.53 ×10⁻⁶ cm/s. For the same molecule, the “flux (Jmax)” value ([2]; after 90 min) was 0.37 ± 0.018 μg/cm^2/min, the “concentration for 50% cell cytotoxicity (TC50)” value (Vero E6 cells) was 2.53 µg/mL and the “selectivity index (SI = CC50/EC50)” value [3] was 19.4. For the same molecule, the EC50 ([3]; Middle East respiratory syndrome-related coronavirus, Vero C1008, read-out: EC50 antiviral activity) was 0.13 µg/mL (≈ 0.43 µM), the inhibition at 0.125 µg/mL ([3]; Middle East respiratory syndrome-related coronavirus, Vero C1008, read-out: inhibition efficacy (viral plaques)) was 48% and the “% plaque prohibition in lung homogenate” value (MERS-CoV; after 3 d postinfection) was 27.1%. The “% plaque prohibition in lung homogenate” value (MERS-CoV; after 6 d postinfection) was 44.8%, the “IFN-γ level in BALF” value [4] was 82.7 ± 7.51 pg/mg protein and the “IL-4 level in BALF” value [4] was 23.5 ± 2.10 pg/mg protein. For the same molecule, the “IL-6 level in BALF” value [4] was 112.9 ± 14.6 pg/mg protein, the “SOD level in BALF” value [4] was 2.2 ± 0.35 U/mg protein and the “TNF-α level in BALF” value [4] was 57.4 ± 6.2 pg/mg protein. For the same molecule, the “effect on lung pathological alterations” value (lung tissue) was “marked suppression in all of those alterations”, the “effect on MPO and NF-κB protein expression in lung” value [5] was “markedly suppressed the protein expression compared with the infected group” and the AUC(0-inf) [6, 8] was 77000 ± 22000 ng·h/mL. For the same molecule, the Tmax [6, 8] was 2 h, the AUC(0-t) ([6]; male, Wistar albino, in vivo, po, 20 mg/kg, AUC0–24, rat, 20 mg/kg MH, n = 6) was 56100 ± 16200 ng·h/mL and the Cmax ([6]; male, Wistar albino, in vivo, po, 20 mg/kg, Cmax, 20 mg/kg MH, n = 6) was 4820 ± 840 ng/mL. For the same molecule, the “AUC0–24” value ([6]; oral, 20 mg/kg MH, n = 6, listed as Morin Hydrate Dispersion) was 56000 ± 16000 ng·h/mL.
In the case of `NC(=O)N1c2ccccc2CC(=O)c2ccccc21` [oxycarbazepine], the pKa [7] is listed as 10.7.
